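48-hour exposure; five concentrations; linearly interpolated endpoints. TGI: concentration producing complete growth inhibition.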
The compounds below were run on BT-549 breast (assay: DTP human tumour cell line panel, 48 h).

`OC1[C@@H]2[C@@H](O)[C@H](O)[C@@H](O)N2C[C@@H]1O` (some centres undefined) and `CS(=O)(=O)O[C@H]1CN2C[C@@H](O)[C@@H](O)[C@H]2[C@H]1CO` cannot be ordered by TGI: > 100 µM for the first, > 100 µM for the second.

Compared with `OCC1OC(c2cccc3cc(O)c(O)cc23)CC1O` (centres undefined), `Nc1ccc2c(c1)N(C(=O)c1cc3cc(NC(=O)c4cc5ccccc5o4)ccc3[nH]1)CC2CCl` (centres undefined) is lower in TGI: > 100 µM for the first, 1.9 µM for the second.

Compared with `CC(C)(Cl)C(Br)CCC(C)(Cl)C(Br)CBr` (centres undefined), `CC(C)(C)OC(=O)N1CCc2[nH][nH]c(=O)c2C1` is higher in TGI: 42.9 µM for the first, > 100 µM for the second.

`O=C1NC(NNc2ccccc2)=N/C1=C\c1ccccc1O` and `O=C(O)c1ccc(N=C(C(=Nc2ccc(C(=O)O)cc2)c2ccccc2)c2ccccc2)cc1` cannot be ordered by TGI: > 100 µM for the first, > 100 µM for the second.

`Cc1cc(C)nc(NC(=O)c2ccc(Br)s2)c1` and `Cc1cc2c(cc1Cl)SC(NS(=O)(=O)c1ccc(Cl)cc1)=NS2(=O)=O` cannot be ordered by TGI: > 100 µM for the first, > 100 µM for the second.

`COC(=O)c1cc2c3c(ccc2[nH]1)N(C(=O)c1cc2cc(OC)c(OC)c(OC)c2[nH]1)CC3CCl` (centres undefined) and `COc1cc(C2SCC(=O)N2c2ccccn2)cc(OC)c1OC` (centres undefined) cannot be ordered by TGI: > 100 µM for the first, > 100 µM for the second.

`OCCCCCCCCCCCOc1ccc(C2OCC3(CO2)COC(c2ccc(OCCCCCCCCCCCO)cc2)OC3)cc1` (centres undefined) and `O=Cc1cn(CCCCCCCCCCCCn2cc(C=O)c3ccccc32)c2ccccc12` cannot be ordered by TGI: > 50 µM for the first, > 100 µM for the second.

Compared with `COC(=O)c1ccc(C(=O)NC(Cc2ccc(Oc3cc(CC(NC(=O)c4ccccc4C(=O)OC)C(=O)OC)ccc3OC)cc2)C(=O)OC)cc1` (centres undefined), `CCCCc1c(N(C)C)c(OC(C)=O)c(-c2cn(C)c3ccccc23)oc1=O` is lower in TGI: > 100 µM for the first, 72.2 µM for the second.

`Nc1c2c(nc3cc(F)c(F)cc13)CCC2` and `CC1(C)CC(=O)c2[nH]c3ccccc3c2CC(=O)NCCc2cn1cn2` cannot be ordered by TGI: > 100 µM for the first, > 100 µM for the second.

Compared with `COC(=O)CCC1=CCC2(SC)C(=O)Nc3cccc1c32` (centres undefined), `CC(C)(C)[Si](C)(C)OCC1OC(n2ccc(N)nc2=O)C(O[Si](C)(C)C(C)(C)C)C1O[Si](C)(C)C(C)(C)C` (centres undefined) is lower in TGI: > 100 µM for the first, 3.73 µM for the second.

Each compound was assayed on MALME-3M melanoma (assay: DTP human tumour cell line panel, 48 h).

`OC1[C@@H]2[C@@H](O)[C@H](O)[C@@H](O)N2C[C@@H]1O` (some centres undefined) and `CS(=O)(=O)O[C@H]1CN2C[C@@H](O)[C@@H](O)[C@H]2[C@H]1CO` cannot be ordered by TGI: > 100 µM for the first, > 100 µM for the second.

Going from `CC(C)(Cl)C(Br)CCC(C)(Cl)C(Br)CBr` (centres undefined) to `CC(C)(C)OC(=O)N1CCc2[nH][nH]c(=O)c2C1`, the TGI rises from 41 µM to > 100 µM.

`O=C1NC(NNc2ccccc2)=N/C1=C\c1ccccc1O` and `O=Cc1cn(CCCCCCCCCCCCn2cc(C=O)c3ccccc32)c2ccccc12` cannot be ordered by TGI: > 100 µM for the first, > 100 µM for the second.

`Cc1cc(C)nc(NC(=O)c2ccc(Br)s2)c1` and `COC(=O)CCC1=CCC2(SC)C(=O)Nc3cccc1c32` (centres undefined) cannot be ordered by TGI: > 100 µM for the first, > 100 µM for the second.

Going from `COC(=O)c1cc2c3c(ccc2[nH]1)N(C(=O)c1cc2cc(OC)c(OC)c(OC)c2[nH]1)CC3CCl` (centres undefined) to `Nc1ccc2c(c1)N(C(=O)c1cc3cc(NC(=O)c4cc5ccccc5o4)ccc3[nH]1)CC2CCl` (centres undefined), the TGI falls from > 100 µM to 0.289 µM.

`OCCCCCCCCCCCOc1ccc(C2OCC3(CO2)COC(c2ccc(OCCCCCCCCCCCO)cc2)OC3)cc1` (centres undefined) and `COC(=O)c1ccc(C(=O)NC(Cc2ccc(Oc3cc(CC(NC(=O)c4ccccc4C(=O)OC)C(=O)OC)ccc3OC)cc2)C(=O)OC)cc1` (centres undefined) cannot be ordered by TGI: > 50 µM for the first, > 100 µM for the second.

`Nc1c2c(nc3cc(F)c(F)cc13)CCC2` and `CC1(C)CC(=O)c2[nH]c3ccccc3c2CC(=O)NCCc2cn1cn2` cannot be ordered by TGI: > 100 µM for the first, > 100 µM for the second.

Going from `CCCCc1c(N(C)C)c(OC(C)=O)c(-c2cn(C)c3ccccc23)oc1=O` to `CC(C)(C)[Si](C)(C)OCC1OC(n2ccc(N)nc2=O)C(O[Si](C)(C)C(C)(C)C)C1O[Si](C)(C)C(C)(C)C` (centres undefined), the TGI falls from 62.3 µM to 4.11 µM (15-fold).

The compounds below were run on TK-10 renal (assay: DTP human tumour cell line panel, 48 h).

`OC1[C@@H]2[C@@H](O)[C@H](O)[C@@H](O)N2C[C@@H]1O` (some centres undefined) and `CS(=O)(=O)O[C@H]1CN2C[C@@H](O)[C@@H](O)[C@H]2[C@H]1CO` cannot be ordered by TGI: > 100 µM for the first, > 100 µM for the second.

Compared with `OCC1OC(c2cccc3cc(O)c(O)cc23)CC1O` (centres undefined), `Nc1ccc2c(c1)N(C(=O)c1cc3cc(NC(=O)c4cc5ccccc5o4)ccc3[nH]1)CC2CCl` (centres undefined) is lower in TGI: > 100 µM for the first, 2.07 µM for the second.

Compared with `CC(C)(Cl)C(Br)CCC(C)(Cl)C(Br)CBr` (centres undefined), `CC(C)(C)OC(=O)N1CCc2[nH][nH]c(=O)c2C1` is higher in TGI: 99.6 µM for the first, > 100 µM for the second.

`O=C1NC(NNc2ccccc2)=N/C1=C\c1ccccc1O` and `O=C(O)c1ccc(N=C(C(=Nc2ccc(C(=O)O)cc2)c2ccccc2)c2ccccc2)cc1` cannot be ordered by TGI: > 100 µM for the first, > 100 µM for the second.

Compared with `Cc1cc(C)nc(NC(=O)c2ccc(Br)s2)c1`, `Cc1cc2c(cc1Cl)SC(NS(=O)(=O)c1ccc(Cl)cc1)=NS2(=O)=O` is lower in TGI: > 100 µM for the first, 69.5 µM for the second.

`COC(=O)c1cc2c3c(ccc2[nH]1)N(C(=O)c1cc2cc(OC)c(OC)c(OC)c2[nH]1)CC3CCl` (centres undefined) and `COc1cc(C2SCC(=O)N2c2ccccn2)cc(OC)c1OC` (centres undefined) cannot be ordered by TGI: > 100 µM for the first, > 100 µM for the second.

`OCCCCCCCCCCCOc1ccc(C2OCC3(CO2)COC(c2ccc(OCCCCCCCCCCCO)cc2)OC3)cc1` (centres undefined) and `O=Cc1cn(CCCCCCCCCCCCn2cc(C=O)c3ccccc32)c2ccccc12` cannot be ordered by TGI: > 50 µM for the first, > 100 µM for the second.

`COC(=O)c1ccc(C(=O)NC(Cc2ccc(Oc3cc(CC(NC(=O)c4ccccc4C(=O)OC)C(=O)OC)ccc3OC)cc2)C(=O)OC)cc1` (centres undefined) and `CCCCc1c(N(C)C)c(OC(C)=O)c(-c2cn(C)c3ccccc23)oc1=O` cannot be ordered by TGI: > 100 µM for the first, > 100 µM for the second.

First: Nc1c2c(nc3cc(F)c(F)cc13)CCC2
Second: CC1(C)CC(=O)c2[nH]c3ccccc3c2CC(=O)NCCc2cn1cn2
The TGI of the first is lower: 77.7 µM for the first, > 100 µM for the second.

With `COC(=O)CCC1=CCC2(SC)C(=O)Nc3cccc1c32` (centres undefined) the TGI was > 100 µM.

What follows are compounds tested on RXF 393 renal (assay: DTP human tumour cell line panel, 48 h).

`OC1[C@@H]2[C@@H](O)[C@H](O)[C@@H](O)N2C[C@@H]1O` (some centres undefined) and `CS(=O)(=O)O[C@H]1CN2C[C@@H](O)[C@@H](O)[C@H]2[C@H]1CO` cannot be ordered by TGI: > 100 µM for the first, > 100 µM for the second.

Going from `CC(C)(Cl)C(Br)CCC(C)(Cl)C(Br)CBr` (centres undefined) to `CC(C)(C)OC(=O)N1CCc2[nH][nH]c(=O)c2C1`, the TGI rises from 65.9 µM to > 100 µM.

`O=C1NC(NNc2ccccc2)=N/C1=C\c1ccccc1O` and `O=C(O)c1ccc(N=C(C(=Nc2ccc(C(=O)O)cc2)c2ccccc2)c2ccccc2)cc1` cannot be ordered by TGI: > 100 µM for the first, > 100 µM for the second.

Going from `Cc1cc(C)nc(NC(=O)c2ccc(Br)s2)c1` to `Cc1cc2c(cc1Cl)SC(NS(=O)(=O)c1ccc(Cl)cc1)=NS2(=O)=O`, the TGI falls from > 100 µM to 66.5 µM.

Going from `COC(=O)c1cc2c3c(ccc2[nH]1)N(C(=O)c1cc2cc(OC)c(OC)c(OC)c2[nH]1)CC3CCl` (centres undefined) to `Nc1ccc2c(c1)N(C(=O)c1cc3cc(NC(=O)c4cc5ccccc5o4)ccc3[nH]1)CC2CCl` (centres undefined), the TGI falls from > 100 µM to 0.0496 µM.

`O=Cc1cn(CCCCCCCCCCCCn2cc(C=O)c3ccccc32)c2ccccc12` and `CCCCc1c(N(C)C)c(OC(C)=O)c(-c2cn(C)c3ccccc23)oc1=O` cannot be ordered by TGI: > 100 µM for the first, > 100 µM for the second.

`Nc1c2c(nc3cc(F)c(F)cc13)CCC2` and `CC1(C)CC(=O)c2[nH]c3ccccc3c2CC(=O)NCCc2cn1cn2` cannot be ordered by TGI: > 100 µM for the first, > 100 µM for the second.

What follows are compounds tested on HCT-15 colon (assay: DTP human tumour cell line panel, 48 h).

`OC1[C@@H]2[C@@H](O)[C@H](O)[C@@H](O)N2C[C@@H]1O` (some centres undefined) and `CS(=O)(=O)O[C@H]1CN2C[C@@H](O)[C@@H](O)[C@H]2[C@H]1CO` cannot be ordered by TGI: > 100 µM for the first, > 100 µM for the second.

`OCC1OC(c2cccc3cc(O)c(O)cc23)CC1O` (centres undefined) and `Nc1ccc2c(c1)N(C(=O)c1cc3cc(NC(=O)c4cc5ccccc5o4)ccc3[nH]1)CC2CCl` (centres undefined) cannot be ordered by TGI: > 100 µM for the first, > 100 µM for the second.

Compared with `CC(C)(Cl)C(Br)CCC(C)(Cl)C(Br)CBr` (centres undefined), `CC(C)(C)OC(=O)N1CCc2[nH][nH]c(=O)c2C1` is higher in TGI: 61.9 µM for the first, > 100 µM for the second.

`O=C1NC(NNc2ccccc2)=N/C1=C\c1ccccc1O` and `O=C(O)c1ccc(N=C(C(=Nc2ccc(C(=O)O)cc2)c2ccccc2)c2ccccc2)cc1` cannot be ordered by TGI: > 100 µM for the first, > 100 µM for the second.

`Cc1cc(C)nc(NC(=O)c2ccc(Br)s2)c1` and `Cc1cc2c(cc1Cl)SC(NS(=O)(=O)c1ccc(Cl)cc1)=NS2(=O)=O` cannot be ordered by TGI: > 100 µM for the first, > 100 µM for the second.

`COC(=O)c1cc2c3c(ccc2[nH]1)N(C(=O)c1cc2cc(OC)c(OC)c(OC)c2[nH]1)CC3CCl` (centres undefined) and `COc1cc(C2SCC(=O)N2c2ccccn2)cc(OC)c1OC` (centres undefined) cannot be ordered by TGI: > 100 µM for the first, > 100 µM for the second.

`OCCCCCCCCCCCOc1ccc(C2OCC3(CO2)COC(c2ccc(OCCCCCCCCCCCO)cc2)OC3)cc1` (centres undefined) and `O=Cc1cn(CCCCCCCCCCCCn2cc(C=O)c3ccccc32)c2ccccc12` cannot be ordered by TGI: > 50 µM for the first, > 100 µM for the second.

Compared with `COC(=O)c1ccc(C(=O)NC(Cc2ccc(Oc3cc(CC(NC(=O)c4ccccc4C(=O)OC)C(=O)OC)ccc3OC)cc2)C(=O)OC)cc1` (centres undefined), `CCCCc1c(N(C)C)c(OC(C)=O)c(-c2cn(C)c3ccccc23)oc1=O` is lower in TGI: > 100 µM for the first, 53.7 µM for the second.

`Nc1c2c(nc3cc(F)c(F)cc13)CCC2` and `CC1(C)CC(=O)c2[nH]c3ccccc3c2CC(=O)NCCc2cn1cn2` cannot be ordered by TGI: > 100 µM for the first, > 100 µM for the second.

Compared with `COC(=O)CCC1=CCC2(SC)C(=O)Nc3cccc1c32` (centres undefined), `CC(C)(C)[Si](C)(C)OCC1OC(n2ccc(N)nc2=O)C(O[Si](C)(C)C(C)(C)C)C1O[Si](C)(C)C(C)(C)C` (centres undefined) is lower in TGI: > 100 µM for the first, 5.25 µM for the second.
